Structures can show the parent of a compound that is named as a salt.
Molecular target: T1, dopamine receptor DAR2 (Homo sapiens, UniProt P14416)
T1 construct: host or cells: HTLA (HEK 293-derived)
Assay: PRESTO-Tango β-arrestin 2 recruitment assay, DAR2
Format: cell-based
Details: for RLU value relative to control (transfected but untreated HTLA cells): DAR2, 500 nM
Description: However, binding to a specific receptor/transporter and, thus, the mechanism of action of a given cathinone always depends on the specific structure of the evaluated compound [37]. In this study, the binding activity of IBMcat and its enantiomers was verified by PRESTO-Tango (parallel receptor expression and screening via transcriptional output, with transcriptional activation following arrestin-2 translocation) assay using the HTLA cell line stably producing β-arrestin-2 in a fusion with TEV and luciferase production driven by tTA. For this purpose, the HTLA cells were transiently transfected with plasmid DNA encoding the dopamine receptors type 1-4 (DAR1-4), which also contain the TEV protease cleavage site followed by tTA at the 3’-end (DAR1-Tango, DAR2-Tango, DAR3-Tango, DAR4-Tango). In the case of the receptor activation by a ligand, in transfected cells, the receptor is desensitized by β-arrestin fused to TEV protease. This brings the TEV protease close to the site that specifically cleaves and, thus, the transcription factor can be cleaved. The transcription factor then translocates to the cell nucleus, in which it triggers the transcription of the target gene for luciferase production which can be determined by the light emitted from luciferin conversion to oxyluciferin. Here, the pronounced luminescence was recorded for all DAR1-4 types in HTLA cells treated with IBMCat and its enantiomers (Figure 8).
The HTLA cell line was used for the PRESTO-Tango β-arrestin recruitment assay. […]
The transfected HTLA cells were incubated for 24 h, and then 1 × 10^4 cells were seeded per well of a white 96-well clear bottom plate (Brand, Germany) in 40 μL of DMEM with 1% charcoal-stripped FBS (Thermo Fisher Scientific, USA). […] After 5 min., the luminescence was measured using a multi-mode microplate reader SpectraMax iD5 (Molecular Devices, San Jose, CA, USA) measuring the entire wavelength spectrum. All samples were measured in quadruplicates. The data were evaluated by Prism 7 software (GraphPad, San Jose, CA, USA).

T1 sequence (P14416 whole entry): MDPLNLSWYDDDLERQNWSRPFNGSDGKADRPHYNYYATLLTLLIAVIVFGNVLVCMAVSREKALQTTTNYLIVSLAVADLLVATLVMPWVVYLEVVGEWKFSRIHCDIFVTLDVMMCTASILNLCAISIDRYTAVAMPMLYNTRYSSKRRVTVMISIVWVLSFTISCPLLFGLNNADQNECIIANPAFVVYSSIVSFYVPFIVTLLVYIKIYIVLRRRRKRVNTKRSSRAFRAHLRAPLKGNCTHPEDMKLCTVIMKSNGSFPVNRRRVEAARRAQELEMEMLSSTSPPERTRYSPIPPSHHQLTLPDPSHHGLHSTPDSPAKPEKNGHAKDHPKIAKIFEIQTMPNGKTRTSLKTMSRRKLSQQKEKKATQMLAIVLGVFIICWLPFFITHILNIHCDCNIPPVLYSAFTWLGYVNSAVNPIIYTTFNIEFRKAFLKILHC

Structure (SMILES) | RLU value relative to control (transfected but untreated HTLA cells) | effect on DAR2-expressing cells (0-500 nM)
CNC(C)C(=O)c1ccc(CC(C)C)cc1.Cl (stereo not drawn) [IBMcat, 4-isobutylmethcathinone hydrochloride] | approximately 5 fold | 
CN[C@H](C)C(=O)c1ccc(CC(C)C)cc1 [R-IBMCat] |  | no effect
CN[C@@H](C)C(=O)c1ccc(CC(C)C)cc1 [S-IBMCat, (S)-4-isobutylmethcathinone hydrochloride] | ~3 fold | 

Reference: PMC9780888, “4-Isobutylmethcathinone—A Novel Synthetic Cathinone with High In Vitro Cytotoxicity and Strong Receptor Binding Preference of Enantiomers” (Pharmaceuticals, 2022)
